Assay results as given in US8710068B2, “Method of treating cancer using a survivin inhibitor” (The Trustees Of The University Of Pennsylvania, priority 2009, dated 2014).

Test system: HeLa cells
Assay: Immunofluorescence microscopy of mitosis and spindle formation, HeLa
Format: cell-based, human
Procedure: FIG. 8 illustrates the effect of S2 on mitotic spindle formation. HeLa cells were treated with S2 or DMSO for 15 hours. The cells were then fixed and subjected to immunostaining using the anti-β-Tubulin (green) and the anti-Survivin (red). Representative fluorescent microscopy images are shown. Note that short microtubule bundles form in S2-treated cells.
FIG. 9 illustrates the effect of S12 on mitosis. (A) HeLa cells were treated with S12, S2 or DMSO for 15 hours. The cells were then fixed and subjected to immunostaining using antibodies specific for Aurora B (green) and Survivin (red). DNA was stained with DAPI. Chromosome misalignment is indicated with the arrowheads. (B) Percentage of S12-treated cells in mitosis, in metaphase, in anaphase/telophase, or with misaligned chromosomes. (C) Percentage of S2-treated cells in mitosis, in metaphase, in anaphase/telophase, or with misaligned chromosomes. (D) HeLa cells were treated with S12 (10 μg/ml) or DMSO (control) for 15 hours. Cells were examined by PI staining of DNA content by FACS analysis.
FIG. 17 illustrates (A) FACS analysis of DNA content of HeLa cells treated with SBDO3. Note the accumulation of cells at the G2/M stage. Cell death was also observed (sub-G1 population); (B) Immuno-fluorescence microscopy analysis of cell treated with SBDO3. Note that the microtubule bundles of the mitotic spindle are disorganized. The chromosomes are not aligned properly and cells cannot go through metaphase.
FIG. 19 illustrates immunofluorescence studies of Survivin localization. (A) Untreated HeLa cells were subjected to immunostaining using a monoclonal anti-beta-Tubulin antibody (green) or a polyclonal anti-Survivin antibody (red). Images of cells at various stages of mitosis are shown. (B) HeLa cells were treated with S2 for 6 hours. Cells were immunostained with anti-beta-Tubulin antibody (green) or a polyclonal anti-survivin antibody (red). Note that localization of Survivin to the midbody was not affected by S2.
The effect of S2 and its analogs on the progression of cell cycle was examined by immunofluorescence microscopy. HeLa cells were plated on coverglass and treated with the Survivin-targeting compound S2 (10 μg/ml) or with the solvent DMSO alone for 15 hours. Cells were stained with the anti-β-Tubulin antibody (green) and anti-Survivin antibody (red). S2 can block cell division at the early stage of mitosis (FIG. 8). […] The microtubules in this case are very short, with one end attached to the centrosome and the other end to the kinetochore of the chromosomes (FIG. 8).
We extended the immunofluorescence studies to define the cell stage in the cells that were arrested by S2 or its analogs. Cells were also stained with anti-Aurora B antibody or anti-Survivin antibody in order to determine whether the localization of Survivin or Aurora B proteins are changed by these small molecules. Upon S2 or S12 treatment, we observed that cells accumulate in a stage with condensed chromosomes but without proper alignment of chromosomes on the mitotic plate (FIG. 9). The percentage of cells that progress to metaphase or beyond was reduced by S2 or S12 treatment (FIG. 9). […] Moreover, localization of Survivin to the midbody was also not affected.
Effects of the Survivin-targeting compound S12 on cell cycle progression was examined by immunofluorescence microscopy. HeLa cells were plated on coverglass and treated with S12 (40 μM) or with the solvent DMSO alone for 15 hours. […]

O=C(CC1(O)C(=O)Nc2ccc(Br)cc21)c1ccc2c(c1)OCO2 (centres unmarked) [S12]
percentage of cells that progress to metaphase or beyond (15 hours): reduced
formation of the mitotic spindle (15 hours, immunofluorescence): can cause defects in formation of the mitotic spindle
localization of Survivin or Aurora B to the kinetochore (immunofluorescence): did not alter
localization of Survivin to the midbody (immunofluorescence): not affected
mitotic stage at which cells accumulate (immunofluorescence): arrested by S12 in an early stage of mitosis
